The results in this text go back to PMC11866022, “Long-Chain Cyclic Arylguanidines as Multifunctional Serotonin Receptor Ligands with Antiproliferative Activity” (ACS Omega, 2025).

The subject of series [1] is 1321N1 astrocytoma cells. As to the kind of experiment: Antiproliferative activity (MTS), 1321N1. In kind it is cell-based, human. The note with it: Homo sapiens, 1321-N1; MTS assay. As for the experimental part: (§1) These cell lines were characterized by different mutation profiles, the main one being the variable status of the p53 protein. In detail, U87MG cells have a wild-type p53 protein, while astrocytoma and the rest of GBM cells harbor mutated p53 protein. Additional assays were performed on MCF7 breast cancer and AsPC-1 pancreatic cancer cells. The wide range of tested lines was aimed at screening the anticancer potential of the tested compounds. The first represents one of the most common and the second one of the most aggressive cancers in the world. Comparing the activity of compounds on GBM cells to other types of cancer may reveal their selectivity and usefulness in targeted therapies. The cytotoxicity of the compounds on normal human astrocytes (NHA) and Feline catus astrocyte (PG-4) was determined. Tests on normal lines serve to verify the potential toxicity of the tested compounds on healthy cells. Due to the targeting of CNS tumors, astrocytes were selected as normal lines.
(§2) The detailed procedure is presented in previous publications.[53] […] Cells were cultured in appropriate media, supplemented with FBS, antibiotics, and other supplements, and incubated at 37 °C with 5% CO2. […] Cell viability was assessed using the MTS assay, and the inhibitory concentration (IC50) was calculated using GraphPad Prism 8.0. Each compound was tested in triplicate across multiple experiments.
Supplementary materials - Biological research […]

The target of series [2] is T1, 5-HT6 (Homo sapiens, UniProt P50406).
T1 construct: expressed in transfected cells; host or cells: HEK293
In words: Radioligand binding assay, 5-HT6 ([3H]-LSD). The note with it: HEK293 cell line with human 5-HT6R; 2 nM [3H]-LSD. As for the experimental part:
Ligand affinity for 5-HT6 receptors was subsequently tested with a radioligand binding assay, using the HEK293 cell line with human 5-HT6R, aiming to select compounds with the strongest affinity. Three compounds belonging to 2-naphthalenesulfonamide derivatives of 3,4-dihydroquinazolin-2-amines were obtained (Table 1).
The detailed procedure is presented in previous publications.[53] Assays were performed by incubating for 1 h at 37 °C (room temperature for 5-HT1A) in 200 μL volumes on 96-well plates. The reaction was terminated by rapid filtration using Unifilter plates, and radioactivity on the filters was measured with a PerkinElmer Microbeta plate reader. Radioligands used were:
Eight concentrations (10^–4 to 10^–11 M) were tested in triplicate for each compound. Inhibition constants (Ki) were calculated using the Cheng–Prusoff equation.[54] The results are expressed as the means of at least two independent experiments.

The subject of series [3] is U87MG glioblastoma cells. In words: Antiproliferative activity (MTS), U87MG. In kind it is cell-based, human. The note with it: Homo sapiens, U-87 MG; MTS assay. Here is the method:
as §1, §2
Supplementary materials - Biological research
B) U87MG glioblastoma multiforme line.
and U87MG glioblastoma multiforme line for C) PP 3; D) PP 6; E) PP 8; F) PP 10; G) PP 11; H) PP
On the technique in general: Formazan colour is commonly taken as a measure of viable cells.

The target in series [4] is T2, human serum albumin (HSA) (Homo sapiens, UniProt P02768).
T2 construct: purchased
As to the kind of experiment: HSA binding by biochromatography (HSA column). The series is classed as in vitro ADME. The note with it: HSA column. As for the experimental part:
(§3) Lipophilicity and affinity for phospholipids for each investigated molecule were assessed. Additionally, selected compounds with the highest biological activities have been characterized by their affinity plasma proteins. All experiments were performed using protocols developed by Valko.[35] These methods facilitated the calculation of chromatographic hydrophobicity indices (CHI) and plasma protein binding percentages (%PPB) in a biochromatographic experiment, with results compared to the reference. A detailed description of the experiments is provided in the Supporting Information (SI), along with the raw data. […] Although high lipophilicity may limit the medical use of the analyzed compounds since they may tend to accumulate excessively in the human body, it is remarkable that several clinically used drugs also have high lipophilicity. […] (Table 5).
(§4) The detailed procedure is presented in previous publications.[53] High-performance liquid chromatography (HPLC) analyses were conducted using the Prominence-1 LC-2030C 3D system (Shimadzu) with a DAD detector, employing three different chromatographic columns with specific stationary phases and mobile phases. The analysis was performed at 30 °C with a flow rate of 1.5 mL/min for IAM and C18 columns, and 0.9 mL/min for the Chiralpak column. Calibration standards for the columns were sourced from various suppliers and dissolved in dimethyl sulfoxide. Detection occurred in the UV range (190–300 nm) with a 5 μL injection volume. Each compound was analyzed in triplicate. Retention times for the tested compounds and calibration standards are provided in the Supporting Information (Tables S1 and S2).

For series [5], the system named is LN-229 glioblastoma cells. As to the kind of experiment: Antiproliferative activity (MTS), LN-229. In kind it is cell-based, human. The note with it: Homo sapiens, LN-229; MTS assay, 72 h. Here is the method: as §1, §2
Series [6] deals with U-251 glioblastoma cells. As to the kind of experiment: Antiproliferative activity (MTS), U-251. In kind it is cell-based, human. The note with it: Homo sapiens, U-251; MTS assay, 72 h. As for the experimental part: as §1, §2
A short description of series [7]: Lipophilicity, chromatographic hydrophobicity index on C18 (Valko protocol). The series is classed as physicochemical. Here is the method: as §3, §4
Series [8] has as its system AsPC-1 pancreatic cancer cells. In words: Antiproliferative activity (MTS), AsPC-1. In kind it is cell-based, human. The note with it: Homo sapiens, ASPC1; MTS assay, 72 h. As for the experimental part: as §1, with “The chosen group of ligands was further examined for their ability to inhibit proliferation across multiple cancer cell lines related to the CNS system (1321N1, U87MG, LN-229, and U-251). These” for “These”
The detailed procedure is presented in previous publications.[53] Briefly, the study utilized various human cancer and normal cell lines, including LN-229 (glioblastoma), MCF7 (breast carcinoma), HepG2 (hepatoma), U-251 (glioblastoma), U87MG (glioblastoma), AsPC-1 (pancreatic adenocarcinoma), and NHA (normal human astrocytes). Cells were cultured in appropriate media, supplemented with FBS, antibiotics, and other supplements, and incubated at 37 °C with 5% CO2. Compounds were dissolved in DMSO, prepared at various concentrations (1–25 μM), and applied to the cells for 72 h. Cell viability was assessed using the MTS assay, and the inhibitory concentration (IC50) was calculated using GraphPad Prism 8.0. Each compound was tested in triplicate across multiple experiments.

The nature of series [9]: Affinity to phospholipids, CHI IAM (Valko protocol). The series is classed as physicochemical. The note with it: IAM column. Here is the method: as §3, §4
For series [10], the system named is MCF7 breast cancer cells. As to the kind of experiment: Antiproliferative activity (MTS), MCF7. The note with it: Homo sapiens, MCF7; MTS assay, 72 h. In kind it is cell-based, human. As for the experimental part:
as §1, §2

The nature of series [11]: Metabolic stability in mouse liver microsomes. The note with it: MLMs, 120 min. The series is classed as in vitro ADME. The text has this:
Moving on to the next parameter, which is metabolism, we determined metabolic stability, using mouse liver microsomes (MLMs). […]
Main metabolic pathways are marked in red.

Values joined by “and” are separate entries in the source; they are usually repeats but may differ in a detail not shown here. Equal entries are not always repeated.

By IC50 is commonly meant the concentration needed to halve the response being measured. Low values mean higher potency, high ones lower potency. The term Ki denotes a dissociation constant, usually derived from enzyme kinetics or from competition with a known ligand. A higher Ki goes with a looser hold on the target.

T1 sequence (P50406 whole entry): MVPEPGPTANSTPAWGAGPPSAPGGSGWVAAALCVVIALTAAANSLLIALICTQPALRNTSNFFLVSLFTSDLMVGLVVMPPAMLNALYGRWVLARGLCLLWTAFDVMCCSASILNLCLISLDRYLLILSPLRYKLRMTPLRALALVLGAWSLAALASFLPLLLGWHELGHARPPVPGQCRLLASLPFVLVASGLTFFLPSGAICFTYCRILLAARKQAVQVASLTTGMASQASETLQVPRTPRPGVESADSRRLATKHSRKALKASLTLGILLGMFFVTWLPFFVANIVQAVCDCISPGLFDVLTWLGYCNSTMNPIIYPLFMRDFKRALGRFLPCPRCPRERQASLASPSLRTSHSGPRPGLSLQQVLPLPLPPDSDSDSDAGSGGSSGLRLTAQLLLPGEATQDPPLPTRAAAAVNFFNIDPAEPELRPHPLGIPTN
T2 sequence (P02768 25-609): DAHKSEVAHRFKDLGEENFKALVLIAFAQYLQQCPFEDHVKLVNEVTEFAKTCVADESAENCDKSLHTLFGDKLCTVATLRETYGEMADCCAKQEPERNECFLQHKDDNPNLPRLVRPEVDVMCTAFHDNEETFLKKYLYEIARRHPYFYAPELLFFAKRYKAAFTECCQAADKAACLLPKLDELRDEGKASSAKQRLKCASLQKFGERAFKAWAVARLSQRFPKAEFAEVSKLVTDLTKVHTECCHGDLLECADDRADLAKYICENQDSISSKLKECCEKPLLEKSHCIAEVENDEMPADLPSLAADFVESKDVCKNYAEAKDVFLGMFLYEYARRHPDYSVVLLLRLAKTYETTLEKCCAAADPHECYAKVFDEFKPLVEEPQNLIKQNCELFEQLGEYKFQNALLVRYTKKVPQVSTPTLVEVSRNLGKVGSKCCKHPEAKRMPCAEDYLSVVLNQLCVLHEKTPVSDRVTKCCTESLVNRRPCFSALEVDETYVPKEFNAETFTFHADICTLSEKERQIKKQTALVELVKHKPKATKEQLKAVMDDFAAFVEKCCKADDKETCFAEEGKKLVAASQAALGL

In [1], `COc1cccc2c1C(=O)c1c(O)c3c(c(O)c1C2=O)C[C@@](O)(C(=O)CO)C[C@@H]3O[C@H]1C[C@H](N)[C@H](O)[C@H](C)O1` [Doxorubicin, reference compound] returned an IC50 of 1.1 µM.

In [2], `O=S(=O)(c1ccc2ccccc2c1)N1CCN(C2=Nc3ccccc3CN2)CC1` [PP 1, 2-[4-(Naphthalene-2-sulfonyl)piperazin-1-yl]-3,4-dihydroquinazoline] came in with an inhibition constant Ki of 8660 ± 2160 nM.

As to `O=S(=O)(NCCCCNC1=NCc2ccccc2N1)c1ccc2ccccc2c1` [PP 2, N-{4-[(1,4-Dihydroquinazolin-2-yl)amino]butyl}naphthalene-2-sulfonamide], the affinity in [2], expressed as Ki, was 616 ± 154 nM.

In the case of `O=S(=O)(NCCCCCCNC1=NCc2ccccc2N1)c1ccc2ccccc2c1` [PP 3, N-{6-[(1,4-Dihydroquinazolin-2-yl)amino]hexyl}naphthalene-2-sulfonamide], affinity in series [2] was put at a Ki of 201 ± 50 nM. Moreover, the IC50 was 12 ± 0.9 µM in [3] and 13.3 ± 0.1 µM in [1].

In turn, `O=S(=O)(NCCNC1=Nc2ccccc2CN1)c1cccc2ccccc12` [PP 4, N-{2-[(3,4-Dihydroquinazolin-2-yl)amino]ethyl}naphthalene-1-sulfonamide] returned a Ki in series [2] of 4330 ± 1080 nM. Also, the half-maximal inhibitory concentration (IC50) in [3], in [1], in series [5], in [6], in series [8] and in series [10] was above 25 µM in each case. The “%HSA” value in [4] came to 94.8%. The logKHSA in [4] was 1.18 and 1.2. In [7], the “CHI C18 pH 2.6” value came out at 64.9. In addition, in series [7], the “CHI C18 pH 7.4” value came to 79.9. Further, in [7], the “CHI C18 pH 10.5” value is 101.9. Also, in [9], the “CHI IAM” value is given as 50.2.

In series [2], `O=S(=O)(c1cccc2ccccc12)N1CCN(C2=Nc3ccccc3CN2)CC1` [PP 5, 2-[4-(Naphthalene-1-sulfonyl)piperazin-1-yl]-3,4-dihydroquinazoline] yielded a Ki of 3490 ± 872 nM.

As for `O=S(=O)(NCCCCNC1=Nc2ccccc2CN1)c1cccc2ccccc12` [PP 7, N-{4-[(3,4-Dihydroquinazolin-2-yl)amino]butyl}naphthalene-1-sulfonamide], in series [2], the Ki came out at 697 ± 174 nM.

`O=S(=O)(NCCCCCCNC1=Nc2ccccc2CN1)c1cccc2ccccc12` [PP 8, N-{6-[(3,4-Dihydroquinazolin-2-yl)amino]hexyl}naphthalene-1-sulfonamide] displayed a Ki in [2] of 98 ± 25 nM. Moreover, the IC50 was 24.5 ± 1.4 µM in series [3]; 18.4 ± 2.9 µM in series [1]; above 25 µM in series [5]; above 25 µM in series [6]; above 25 µM in series [8]; above 25 µM in series [10].

`CC1NC(NCCNS(=O)(=O)c2cccc3ccccc23)=Nc2ccccc21` (stereo not drawn) [PP 9, N-{2-[(4-Methyl-3,4-dihydroquinazolin-2-yl)amino]ethyl}naphthalene-1-sulfonamide] registered a Ki in series [2] of 2420 ± 605 nM.

Regarding `CC1NC(NCCCCCCNS(=O)(=O)c2cccc3ccccc23)=Nc2c(Cl)cc(Cl)cc21` (stereo not drawn) [PP 12, N-{6-[(6,8-Dichloro-4-methyl-3,4-dihydroquinazolin-2-yl)amino]hexyl}naphthalene-1-sulfonamide], affinity in series [2] was put at a Ki of 208 ± 52 nM. Also, the midpoint of inhibition in [3], the IC50, lay at 9.5 ± 0.7 µM. In addition, in series [4], the “%HSA” value came out at 99.7% and the logKHSA turned out to be 1.9. The molecule also yielded an IC50 in [1] of 5.7 ± 0.1 µM. In [11], the “metabolic stability, % of remaining” value is 76.87%. In series [7], the “CHI C18 pH 2.6” value amounted to 97.1, the “CHI C18 pH 7.4” value turned out to be 111.2 and the “CHI C18 pH 10.5” value is recorded as 121.8. The “CHI IAM” value in series [9] worked out at 59.4.

`O=S(=O)(NCCCCCCNc1ncccn1)c1cccc2ccccc12` [PP 16, N-{6-[(Pyrimidin-2-yl)amino]hexyl}naphthalene-1-sulfonamide] came in with a Ki in [2] of 3100 ± 776 nM. Also, the IC50 in series [5], in series [6], in series [8] and in series [10] was above 25 µM each time.

For the molecule `c1ccc(CNc2nc3ccccc3[nH]2)cc1` [PP 17, N-Benzyl-1H-1,3-benzimidazol-2-amine], in [2], the “5-HT6 Ki” value was “did not show any affinity” and affinity was put at a Ki of 31900 ± 7960 nM.

As for `c1ccc(CCNc2nc3ccccc3[nH]2)cc1` [PP 18, N-(2-Phenylethyl)-1H-1,3-benzimidazol-2-amine], in series [2], the “5-HT6 Ki” value was “did not show any affinity” and affinity was put at a Ki of 19800 ± 4950 nM.

In series [2], `c1ccc2c(c1)CNC(NCCc1cccc3ccccc13)=N2` [PP 19, N-[2-(Naphthalen-1-yl)ethyl]-3,4-dihydroquinazolin-2-amine] showed a Ki of 1870 ± 460 nM. Besides, the IC50 in series [5], in series [6], in series [8] and in [10] was above 25 µM in each case.

Take `c1ccc2c(N3CCN(c4nc5ccccc5[nH]4)CC3)cccc2c1` [PP 20, 2-[4-(Naphthalen-1-yl)piperazin-1-yl]-1H-1,3-benzodiazole]: in series [2], the “5-HT6 Ki” value was “did not show any affinity”. Moreover, in series [2], the Ki turned out to be 5060 ± 1260 nM. The IC50 in [5], in [6], in series [8] and in series [10] was above 25 µM each time.

With `c1ccc2c(c1)CNC(NCCCCCCNc1nsc3ccccc13)=N2` [PP 23, N6-(1,2-Benzothiazol-3-yl)-N1-(3,4-dihydroquinazolin-2-yl)hexane-1,6-diamine], in series [2], affinity was put at a Ki of 975 ± 244 nM.
